Tested on: peripheral blood monocytes
Experiment: Ex vivo uptake of fluorescent Aβ42 by peripheral blood monocytes from adjuvanted mice
Assay type: in vivo, C57BL/6 mice
Conditions: i.m. injection; AS01B mouse full dose, CRX601 2 μg dose
Source text: To begin to examine the function of the increase of monocytes in the peripheral blood, we examined the capacity of those monocytes to uptake Aβ42 in a test tube. In order to measure that phagocytic activity, we have used fluorescent HiLyteFluo Aβ42 (Anaspec Inc).
We examined the capacity of monocytes to uptake Aβ42 in a test tube. In order to measure that phagocytic activity we have used fluorescent HiLyteFluo Aβ42 (Anaspec Inc).
Preparation of cells: Peripheral blood was drawn from C57BL/6 mice via cardiac puncture with lithium-heparin as anticoagulant, 24-Hour after injection of the adjuvants used herein. Red blood cell lysis was performed twice on pooled blood with Ammonium Chloride-based Buffer (Sigma, Steinheim, Germany) and cells were counted with the EasyCount™ System (Immunicon). […]
Samples were acquired on a flow cytometer (BD FACSCanto II) and data analyzed with the FACSDiva software (BD Biosciences).
Monocytes were identified by their Side/Forward scatter properties, excluding debris and gated as CD3-/CD45R/B220-/Ly-6G-/NK1.1-(Lineage-)/CD11b+ cells. Aβ uptake was assessed by reporting the percentage and Mean Fluorescence Intensity (GeoMean) of positive HiLyte fluor488 Aβ1-42 cells among gated monocytes.

Compound: CCCCCCCCCCC[C@H](CC(=O)N[C@H]1[C@H](OC[C@H](NC(=O)C[C@@H](CCCCCCCCCCC)OCCCCCCCCCC)C(=O)O)O[C@H](CO)[C@@H](OP(=O)(O)O)[C@@H]1OC(=O)C[C@@H](CCCCCCCCCCC)OCCCCCCCCCC)OCCCCCCCCCC [CRX601]
- Aβ42 uptake by monocytes compared to PBS group: higher amount
